# Reference: patent publication US9315503B2, “Kinase inhibitors” (CHIESI FARMACEUTICI S.p.A., priority 2011, dated 2016)
# Structures can show the parent of a compound that is named as a salt.
# Target: T1, p38alpha (Homo sapiens, UniProt Q16539)
# T1 construct: purchased Invitrogen PV3304
# Assay: P38Alpha enzyme inhibition assay (Alphascreen kinase activity assay)
# Format: biochemical
# Conditions: 100 pM p38alpha, 250 μM ATP, 2 hours pre-incubation at 25° C., read-out: p38α inhibition (IC50 values)
# Protocol: P38Alpha Enzyme Inhibition Assay.
# The inhibitory activity of compounds was determined using an Alphascreen® (Perkin Elmer) based kinase activity assay. Kinase reactions consisted of 25 mM HEPES pH 7.5, 10 mM MgCl2, 100 μM Na3VO4, 2 mM DTT, 0.05 mg/ml Tween 20, 100 pM p38alpha (Invitrogen, PV3304), 1% DMSO and 0.3 μg/ml ATF-2 fusion protein (New England Biolabs, 9224). Compounds were incubated under these conditions for 2 hours, at 25° C., prior to the initiation of the kinase activity by the addition of the 250 μM ATP. Reaction volumes were 20 uL. After 1 hr at 25° C. reactions were stopped by the adding 10 uL of 25 mM HEPES pH 7.5 containing 62.5 mM EDTA, 0.05% Triton X-100, 10% BSA and 0.83 ng/uL anti-phospho-ATF2 antibody (Abeam, ab28812). Detection was performed by measuring luminescence following the addition of Alphascreen Donor beads (Perkin Elmer 6765300) and Protein A Alphascreen Acceptor beads (Perkin Elmer 6760137), both at a final concentration of 20 ug/ml. IC50 values were determined from concentration-response curves.
# T1 sequence (Q16539 whole entry): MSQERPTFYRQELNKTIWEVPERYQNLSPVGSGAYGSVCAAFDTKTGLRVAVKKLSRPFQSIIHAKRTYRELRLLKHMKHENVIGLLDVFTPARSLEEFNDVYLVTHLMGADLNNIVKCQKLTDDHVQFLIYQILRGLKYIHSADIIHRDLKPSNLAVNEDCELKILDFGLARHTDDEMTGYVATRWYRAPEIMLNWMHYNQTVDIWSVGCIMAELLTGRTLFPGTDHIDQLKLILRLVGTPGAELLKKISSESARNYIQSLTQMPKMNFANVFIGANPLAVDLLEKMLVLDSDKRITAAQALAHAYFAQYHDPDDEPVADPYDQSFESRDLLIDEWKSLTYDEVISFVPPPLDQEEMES
row,SMILES,IC50
1,"Cc1ccc(-n2nc(C(C)(C)C)cc2NC(=O)N[C@H]2CC[C@@H](Oc3ccc4nnc([C@@H]5CCCN5)n4c3)c3ccccc32)cc1 [Example 6, 1-(5-tert-Butyl-2-p-tolyl-2H-pyrazol-3-yl)-3-[(1S,4R)-4-((S)-3-pyrrolidin-2-yl-[1,2,4]triazolo[4,3-a]pyridin-6-yloxy)-1,2,3,4-tetrahydro-naphthalen-1-yl]-urea]",< 0.01 µM
2,"Cc1ccc(-n2nc(C(C)(C)C)cc2NC(=O)N[C@H]2CC[C@@H](OCCN3CCOCC3)c3ccccc32)cc1 [Example 32, 1-(5-tert-Butyl-2-p-tolyl-2H-pyrazol-3-yl)-3-[(1S,4R)-4-(2-morpholin-4-yl-ethoxy)-1,2,3,4-tetrahydro-naphthalen-1-yl]-urea]",0.1 to 0.5 µM
3,"Cc1ccc(-n2nc(C(C)(C)C)cc2NC(=O)N[C@H]2CC[C@@H](Oc3ccc4nnc(N(C)CCN5CCOCC5)n4c3)c3ccccc32)cc1 [Example 45, 1-(5-tert-Butyl-2-p-tolyl-2H-pyrazol-3-yl)-3-((1S,4R)-4-{3-[methyl-(2-morpholin-4-yl-ethyl)-amino]-[1,2,4]triazolo[4,3-a]pyridin-6-yloxy}-1,2,3,4-tetrahydro-naphthalen-1-yl)-urea]",< 0.01 µM
4,"Cc1ccc(-c2nc(C(C)(C)C)[nH]c2NC(=O)N[C@H]2CC[C@@H](Oc3ccc4nnc(N5CCCCC5)n4c3)c3ccccc32)cc1 [Example 51, 1-(2-tert-Butyl-5-p-tolyl-3H-imidazol-4-yl)-3-[(1S,4R)-4-(3-piperidin-1-yl-[1,2,4]triazolo[4,3-a]pyridin-6-yloxy)-1,2,3,4-tetrahydro-naphthalen-1-yl]-urea]",< 0.01 µM
5,"Cc1ccc(-n2nc(C(C)(C)C)cc2NC(=O)N[C@H]2CC[C@@H](Oc3ccc4nnc(CN5CCN(C)C(CO)C5)n4c3)c3ccccc32)cc1 (stereo partly drawn) [Example 56, 1-(5-tert-Butyl-2-p-tolyl-2H-pyrazol-3-yl)-3-{(1S,4R)-4-[3-(3-hydroxymethyl-4-methyl-piperazin-1-ylmethyl)-[1,2,4]triazolo[4,3-a]pyridin-6-yloxy]-1,2,3,4-tetrahydro-naphthalen-1-yl}-urea]",< 0.01 µM
6,"Cc1ccc(-n2nc(C(C)(C)C)cc2NC(=O)N[C@H]2CC[C@@H](Oc3ccc4nnc([C@@H]5C[C@@H](F)CN5C)n4c3)c3ccccc32)cc1 [Example 91, 1-(5-tert-Butyl-2-p-tolyl-2H-pyrazol-3-yl)-3-{(1S,4R)-4-[3-((2S,4R)-4-fluoro-1-methyl-pyrrolidin-2-yl)-[1,2,4]triazolo[4,3-a]pyridin-6-yloxy]-1,2,3,4-tetrahydro-naphthalen-1-yl}-urea]",< 0.01 µM
7,"C[C@H]1CCCCN1c1nnc2ccc(O[C@@H]3CC[C@H](NC(=O)Nc4cc(C(C)(C)C)nn4-c4cccc(CCN5CCOCC5)c4)c4ccccc43)cn12 [Example 131, 1-{5-tert-Butyl-2-[3-(2-morpholin-4-yl-ethyl)-phenyl]-2H-pyrazol-3-yl}-3-{(1S,4R)-4-[3-((S)-2-methyl-piperidin-1-yl)-[1,2,4]triazolo[4,3-a]pyridin-6-yloxy]-1,2,3,4-tetrahydro-naphthalen-1-yl}-urea formate salt]",< 0.01 µM
8,"C[C@H]1CCCCN1c1nnc2ccc(O[C@@H]3CC[C@H](NC(=O)Nc4cc(C(C)(C)C)nn4-c4cccc(CCN5CCCC5)c4)c4ccccc43)cn12 [Example 132, 1-{5-tert-Butyl-2-[3-(2-pyrrolidin-1-yl-ethyl)-phenyl]-2H-pyrazol-3-yl}-3-{(1S,4R)-4-[3-((S)-2-methyl-piperidin-1-yl)-[1,2,4]triazolo[4,3-a]pyridin-6-yloxy]-1,2,3,4-tetrahydro-naphthalen-1-yl}-urea formate salt]",< 0.01 µM
9,"CCN(C)CCc1cccc(-n2nc(C(C)(C)C)cc2NC(=O)N[C@H]2CC[C@@H](Oc3ccc4nnc(N5CCCC[C@@H]5C)n4c3)c3ccccc32)c1 [Example 133, 1-(5-tert-Butyl-2-{3-[2-(ethyl-methyl-amino)-ethyl]-phenyl}-2H-pyrazol-3-yl)-3-{(1S,4R)-4-[3-((S)-2-methyl-piperidin-1-yl)-[1,2,4]triazolo[4,3-a]pyridin-6-yloxy]-1,2,3,4-tetrahydro-naphthalen-1-yl}-urea formate salt]",< 0.01 µM
10,"C[C@H]1CCCCN1c1nnc2ccc(O[C@@H]3CC[C@H](NC(=O)Nc4cc(C(C)(C)C)nn4-c4cccc(CCN(C)C)c4)c4ccccc43)cn12 [Example 134, 1-{5-tert-Butyl-2-[3-(2-dimethylamino-ethyl)-phenyl]-2H-pyrazol-3-yl}-3-{(1S,4R)-4-[3-((S)-2-methyl-piperidin-1-yl)-[1,2,4]triazolo[4,3-a]pyridin-6-yloxy]-1,2,3,4-tetrahydro-naphthalen-1-yl}-urea formate salt]",< 0.01 µM
11,"C[C@H]1CCCCN1c1nnc2ccc(O[C@@H]3CC[C@H](NC(=O)Nc4cc(C(C)(C)C)nn4-c4cccc(CCN5CCCCC5)c4)c4ccccc43)cn12 [Example 135, 1-{5-tert-Butyl-2-[3-(2-piperidin-1-yl-ethyl)-phenyl]-2H-pyrazol-3-yl}-3-{(1S,4R)-4-[3-((S)-2-methyl-piperidin-1-yl)-[1,2,4]triazolo[4,3-a]pyridin-6-yloxy]-1,2,3,4-tetrahydro-naphthalen-1-yl}-urea formate salt]",< 0.01 µM
12,"C[C@H]1CCCCN1c1nnc2ccc(O[C@@H]3CC[C@H](NC(=O)Nc4cc(C(C)(C)C)nn4-c4cccc(CCN5CCN(C)CC5)c4)c4ccccc43)cn12 [Example 136, 1-(5-tert-Butyl-2-{3-[2-(4-methyl-piperazin-1-yl)-ethyl]-phenyl}-2H-pyrazol-3-yl)-3-{(1S,4R)-4-[3-((S)-2-methyl-piperidin-1-yl)-[1,2,4]triazolo[4,3-a]pyridin-6-yloxy]-1,2,3,4-tetrahydro-naphthalen-1-yl}-urea formate salt]",< 0.01 µM
13,"C[C@H]1CCCCN1c1nnc2ccc(O[C@@H]3CC[C@H](NC(=O)Nc4cc(C(C)(C)C)nn4-c4cccc(CCN5CCCOCC5)c4)c4ccccc43)cn12 [Example 137, 1-{5-tert-Butyl-2-[3-(2-[1,4]oxazepan-4-yl-ethyl)-phenyl]-2H-pyrazol-3-yl}-3-{(1S,4R)-4-[3-((S)-2-methyl-piperidin-1-yl)-[1,2,4]triazolo[4,3-a]pyridin-6-yloxy]-1,2,3,4-tetrahydro-naphthalen-1-yl}-urea formate salt]",< 0.01 µM
14,"C[C@H]1CCCCN1c1nnc2ccc(O[C@@H]3CC[C@H](NC(=O)Nc4cc(C(C)(C)C)nn4-c4cccc(CCN5CCCN(C)CC5)c4)c4ccccc43)cn12 [Example 138, 1-(5-tert-Butyl-2-{3-[2-(4-methyl-[1,4]diazepan-1-yl)-ethyl]-phenyl}-2H-pyrazol-3-yl)-3-{(1S,4R)-4-[3-((S)-2-methyl-piperidin-1-yl)-[1,2,4]triazolo[4,3-a]pyridin-6-yloxy]-1,2,3,4-tetrahydro-naphthalen-1-yl}-urea formate salt]",< 0.01 µM
15,"C[C@H]1COCCN1c1nnc2ccc(O[C@@H]3CC[C@H](NC(=O)Nc4cc(C(C)(C)C)nn4CCO)c4ccccc43)cn12 [Example 139, 1-[5-tert-Butyl-2-(2-hydroxy-ethyl)-2H-pyrazol-3-yl]-3-{(1S,4R)-4-[3-((S)-3-methyl-morpholin-4-yl)-[1,2,4]triazolo[4,3-a]pyridin-6-yloxy]-1,2,3,4-tetrahydro-naphthalen-1-yl}-urea]",< 0.01 µM
16,C[C@H]1CCCCN1c1nnc2ccc(O[C@@H]3CC[C@H](NC(=O)Nc4cc(C(C)(C)C)nn4-c4ccnc(N(C)CCN(C)C)n4)c4ccccc43)cn12 [Example 140],< 0.01 µM
17,"C[C@H]1COCCN1c1nnc2ccc(O[C@@H]3CC[C@H](NC(=O)Nc4cc(C(C)(C)C)nn4-c4cccc(OCCN(C)C)c4)c4ccccc43)cn12 [Example 141, 1-{5-tert-Butyl-2-[3-(2-dimethylamino-ethoxy)-phenyl]-2H-pyrazol-3-yl}-3-{(1S,4R)-4-[3-((S)-3-methyl-morpholin-4-yl)-[1,2,4]triazolo[4,3-a]pyridin-6-yloxy]-1,2,3,4-tetrahydro-naphthalen-1-yl}-urea formate salt]",< 0.01 µM
18,"C[C@H]1COCCN1c1nnc2ccc(O[C@@H]3CC[C@H](NC(=O)Nc4cc(C(C)(C)C)nn4CCN4CCOCC4)c4ccccc43)cn12 [Example 142, 1-[5-tert-Butyl-2-(2-morpholin-4-yl-ethyl)-2H-pyrazol-3-yl]-3-{(1S,4R)-4-[3-((S)-3-methyl-morpholin-4-yl)-[1,2,4]triazolo[4,3-a]pyridin-6-yloxy]-1,2,3,4-tetrahydro-naphthalen-1-yl}-urea formate salt]",< 0.01 µM
19,"C[C@@H]1CCC[C@H](C)N1c1nnc2ccc(O[C@@H]3CC[C@H](NC(=O)Nc4cc(C(C)(C)C)nn4-c4cccc(CN5CCN(C)CC5)c4)c4ccccc43)cn12 [Example 143, 1-{5-tert-Butyl-2-[3-(4-methyl-piperazin-1-ylmethyl)-phenyl]-2H-pyrazol-3-yl}-3-{(1S,4R)-4-[3-((2S,6R)-2,6-dimethyl-piperidin-1-yl)-[1,2,4]triazolo[4,3-a]pyridin-6-yloxy]-1,2,3,4-tetrahydro-naphthalen-1-yl}-urea formate salt]",< 0.01 µM
